From patent US4362743A, “Antibacterial monic acid esters” (Beecham Group Limited, priority 1980, dated 1982)
Values after ≈ are worked out from the molar mass of the structure shown. Read-outs that look alike come from different tables or passages of the source.

Key:
Format in all cases: cell-based
[1] = tested on: M. suipneumoniae HK (2); assay: Anti-mycoplasmal activity in vitro MIC; conditions: Mesomycoplasma hyopneumoniae, 144 h
[2] = tested on: M. suipneumoniae LABER; assay: Anti-mycoplasmal activity in vitro MIC; conditions: Mesomycoplasma hyopneumoniae, 144 h
[3] = tested on: M. hyorhinis ATCC 23234; assay: Anti-mycoplasmal activity in vitro MIC; conditions: Mesomycoplasma hyorhinis, ATCC23234, 144 h
[4] = tested on: M. suipneumoniae JF 435; assay: Anti-mycoplasmal activity in vitro MIC; conditions: Mesomycoplasma hyopneumoniae, JF435, 144 h
[5] = tested on: M. suipneumoniae Str. 11; assay: Anti-mycoplasmal activity in vitro MIC; conditions: Mesomycoplasma hyopneumoniae
[6] = tested on: M. hyosynoviae ATCC 25591; assay: Anti-mycoplasmal activity in vitro MIC; conditions: 144 h
[7] = tested on: M. hyorhinis ATCC 25021; assay: Anti-mycoplasmal activity in vitro MIC; conditions: Mesomycoplasma hyorhinis, ATCC25021, 144 h
[8] = tested on: M. gallisepticum S6; assay: Anti-mycoplasmal activity in vitro MIC; conditions: Mycoplasmoides gallisepticum
[9] = tested on: M. suipneumoniae UCD 1; assay: Anti-mycoplasmal activity in vitro MIC; conditions: Mesomycoplasma hyopneumoniae, UCD1, 144 h
[10] = tested on: M. bovis NCTC 10131; assay: microbe, parasite or virus in culture; conditions: NCTC10131, 144 h
[11] = tested on: M. suipneumoniae NCTC 10110; assay: Anti-mycoplasmal activity in vitro MIC; conditions: Mesomycoplasma hyopneumoniae, NCTC10110, 144 h
[12] = tested on: M. suipneumoniae MS16; assay: Anti-mycoplasmal activity in vitro MIC; conditions: Mesomycoplasma hyopneumoniae
[13] = tested on: M. suipneumoniae PW/C/210; assay: Anti-mycoplasmal activity in vitro MIC; conditions: Mesomycoplasma hyopneumoniae, 144 h
[14] = tested on: M. suipneumoniae NB12; assay: Anti-mycoplasmal activity in vitro MIC; conditions: Mesomycoplasma hyopneumoniae
[15] = tested on: M. suipneumoniae TAM 6N; assay: Anti-mycoplasmal activity in vitro MIC; conditions: Mesomycoplasma hyopneumoniae, TAM6N, 144 h
[16] = tested on: Staph. aureus Russell; assay: Human bacteria MIC; conditions: Staphylococcus aureus; Staph. aureus Russell; nutrient agar, 5% chocolated horse blood, 18 hours 37° C.; read-out: M.I.C.
Method: (§1) The values were determined by serial dilutions in nutrient agar with 5% chocolated horse blood after incubations for 18 hours at 37° C.

[17] = tested on: Strep. pyogenes R80/421; assay: Human bacteria MIC; conditions: Streptococcus pyogenes
Method: as §1

[18] = tested on: Staph. aureus W2827; assay: Human bacteria MIC; conditions: Staphylococcus aureus
Method: as §1

[19] = tested on: Strep. Group C 64/848; assay: Human bacteria MIC
Method: as §1

[20] = tested on: E. coli ESS; assay: Human bacteria MIC; conditions: Escherichia coli
Method: as §1

[21] = tested on: Strep. pneumoniae CN33; assay: Human bacteria MIC; conditions: Streptococcus pneumoniae; Strep. pneumoniae CN33; nutrient agar, 5% chocolated horse blood, 18 hours 37° C.; read-out: M.I.C.
Method: as §1

[22] = tested on: Bacillus subtilis 6633; assay: Human bacteria MIC
Method: as §1

[23] = tested on: Staph. aureus Oxford; assay: Human bacteria MIC; conditions: Staphylococcus aureus; Staph. aureus Oxford; nutrient agar, 5% chocolated horse blood, 18 hours 37° C.; read-out: M.I.C.
Method: as §1

[24] = tested on: E. Coli NCT 10418; assay: Human bacteria MIC; conditions: Escherichia coli
Method: as §1

[25] = tested on: Pasteurella multocida 1633; assay: Human bacteria MIC
Method: as §1

[26] = tested on: Ps. aeruginosa 10662; assay: Human bacteria MIC
Method: as §1

[27] = tested on: M. dispar NCTC 10125; assay: Anti-mycoplasmal activity in vitro MIC; conditions: 144 h
[28] = tested on: Corneybacterium xerosis 9755; assay: Human bacteria MIC
Method: as §1

[29] = M. suipneumoniae HK (2), Friis broth, 0.9% agarose, 6 days 37° C., read-out: M.I.C.
[30] = M. suipneumoniae LABER, Friis broth, 0.9% agarose, 6 days 37° C., read-out: M.I.C.
[31] = M. suipneumoniae JF 435, Friis broth, 0.9% agarose, 6 days 37° C., read-out: M.I.C.
[32] = 144 h, M. suipneumoniae Str. 11, Friis broth, 0.9% agarose, 6 days 37° C., read-out: M.I.C.
[33] = 144 h, M. gallisepticum S6, Friis broth, 0.9% agarose, 6 days 37° C., read-out: M.I.C.
[34] = M. suipneumoniae UCD 1, Friis broth, 0.9% agarose, 6 days 37° C., read-out: M.I.C.
[35] = M. suipneumoniae NCTC 10110, Friis broth, 0.9% agarose, 6 days 37° C., read-out: M.I.C.
[36] = 144 h, M. suipneumoniae MS16, Friis broth, 0.9% agarose, 6 days 37° C., read-out: M.I.C.
[37] = M. suipneumoniae PW/C/210, Friis broth, 0.9% agarose, 6 days 37° C., read-out: M.I.C.
[38] = 144 h, M. suipneumoniae NB12, Friis broth, 0.9% agarose, 6 days 37° C., read-out: M.I.C.
[39] = M. suipneumoniae TAM 6N, Friis broth, 0.9% agarose, 6 days 37° C., read-out: M.I.C.
[40] = Strep. pyogenes R80/421, nutrient agar, 5% chocolated horse blood, 18 hours 37° C., read-out: M.I.C.
[41] = Staph. aureus W2827, nutrient agar, 5% chocolated horse blood, 18 hours 37° C., read-out: M.I.C.
[42] = Strep. Group C 64/848, nutrient agar, 5% chocolated horse blood, 18 hours 37° C., read-out: M.I.C.
[43] = Bacillus subtilis 6633, nutrient agar, 5% chocolated horse blood, 18 hours 37° C., read-out: M.I.C.
[44] = E. Coli NCT 10418, nutrient agar, 5% chocolated horse blood, 18 hours 37° C., read-out: M.I.C.
[45] = Pasteurella multocida 1633, nutrient agar, 5% chocolated horse blood, 18 hours 37° C., read-out: M.I.C.
[46] = Pseudomonas aeruginosa, Ps. aeruginosa 10662, nutrient agar, 5% chocolated horse blood, 18 hours 37° C., read-out: M.I.C.
[47] = Corneybacterium xerosis 9755, nutrient agar, 5% chocolated horse blood, 18 hours 37° C., read-out: M.I.C.
[48] = Pasteurella multocida, 1633, 18 h

SMILES	MIC [1, 29] [µg/mL]	MIC [2, 30] [µg/mL]	MIC [3] [µg/mL]	MIC [4, 31] [µg/mL]	MIC [5, 32] [µg/mL]	MIC [7] [µg/mL]	MIC [8, 33] [µg/mL]	MIC [10] [µg/mL]	MIC [15, 39] [µg/mL]	MIC [16] [µg/mL]	MIC [17, 40] [µg/mL]	MIC [18, 41] [µg/mL]	MIC [19, 42] [µg/mL]	MIC [21] [µg/mL]	MIC [23] [µg/mL]	MIC [24, 44] [µg/mL]	MIC [26, 46] [µg/mL]	MIC [27] [µg/mL]	MIC [6] [µg/mL]	MIC ([20]; 18 h) [µg/mL]	further results
C/C(=C\C(=O)OCCCC(=NO)c1ccccc1)C[C@@H]1OC[C@H](C[C@@H]2O[C@H]2[C@@H](C)[C@H](C)O)[C@@H](O)[C@H]1O [Example 1, 4-Hydroxyimino-4-phenylbutyl monate A]	0.25 (≈ 0.494 µM)	0.1 (≈ 0.198 µM)	0.1 (≈ 0.198 µM)	0.25 (≈ 0.494 µM)	0.1 (≈ 0.198 µM)	0.1 (≈ 0.198 µM)	10 (≈ 19.8 µM)	≤ 0.01	0.25 (≈ 0.494 µM)	2.5 (≈ 4.94 µM)	2.5 (≈ 4.94 µM)	2.5 (≈ 4.94 µM)	2.5 (≈ 4.94 µM)	0.5 (≈ 0.989 µM)	2.5 (≈ 4.94 µM)	> 100	> 100	0.05 (≈ 0.0989 µM)			MIC ([6]; M. hyosynoviae ATCC 25591, Friis broth, 0.9% agarose, 6 days 37° C., read-out: M.I.C.): 0.25 µg/mL (≈ 0.494 µM); MIC [9, 34]: 0.25 µg/mL (≈ 0.494 µM); MIC [11, 35]: 0.25 µg/mL (≈ 0.494 µM); MIC [12, 36]: 0.1 µg/mL (≈ 0.198 µM); MIC [13, 37]: 0.1 µg/mL (≈ 0.198 µM); MIC [14, 38]: 0.1 µg/mL (≈ 0.198 µM); MIC ([20]; E. coli ESS, nutrient agar, 5% chocolated horse blood, 18 hours 37° C., read-out: M.I.C.): 2.5 µg/mL (≈ 4.94 µM); MIC [22, 43]: 1 µg/mL (≈ 1.98 µM); MIC [25, 45]: 5 µg/mL (≈ 9.89 µM)
CON=C(CCCOC(=O)/C=C(\C)C[C@@H]1OC[C@H](C[C@@H]2O[C@H]2[C@@H](C)[C@H](C)O)[C@@H](O)[C@H]1O)c1ccccc1 [Example 5, 4-Methoxyimino-4-phenylbutyl monate A]	0.5 (≈ 0.962 µM)		0.25 (≈ 0.481 µM)	0.5 (≈ 0.962 µM)		0.25 (≈ 0.481 µM)	10 (≈ 19.2 µM)	0.025 (≈ 0.0481 µM)	0.5 (≈ 0.962 µM)	2.5 (≈ 4.81 µM)	2.5 (≈ 4.81 µM)	2.5 (≈ 4.81 µM)	2.5 (≈ 4.81 µM)	2.5 (≈ 4.81 µM)	1 (≈ 1.92 µM)	> 100	> 100	0.1 (≈ 0.192 µM)	0.25 (≈ 0.481 µM)	5 (≈ 9.62 µM)	MIC [2]: 0.25 µg/mL (≈ 0.481 µM); MIC ([5]; STR.11, 144 h): 0.25 µg/mL (≈ 0.481 µM); MIC [9]: 0.25 µg/mL (≈ 0.481 µM); MIC [11]: 0.25 µg/mL (≈ 0.481 µM); MIC ([12]; MS16, 144 h): 0.25 µg/mL (≈ 0.481 µM); MIC [13]: 0.25 µg/mL (≈ 0.481 µM); MIC ([14]; NB12, 144 h): 0.25 µg/mL (≈ 0.481 µM); MIC [28, 47]: > 100 µg/mL; MIC [22, 43]: 1 µg/mL (≈ 1.92 µM); MIC [25, 48]: 50 µg/mL (≈ 96.2 µM)
C/C(=C\C(=O)OCc1ccc(C=NO)o1)C[C@@H]1OC[C@H](C[C@@H]2O[C@H]2[C@@H](C)[C@H](C)O)[C@@H](O)[C@H]1O [Example 7, 5-Hydroxyiminomethylfurfuryl monate A]		0.5 (≈ 1.07 µM)	0.5 (≈ 1.07 µM)		0.5 (≈ 1.07 µM)	0.5 (≈ 1.07 µM)	5 (≈ 10.7 µM)	≤ 0.01		2.5 (≈ 5.35 µM)			2.5 (≈ 5.35 µM)	2.5 (≈ 5.35 µM)	2.5 (≈ 5.35 µM)			0.1 (≈ 0.214 µM)	0.25 (≈ 0.535 µM)	2.5 (≈ 5.35 µM)	MIC [1]: 1 µg/mL (≈ 2.14 µM); MIC [4]: 1 µg/mL (≈ 2.14 µM); MIC [9]: 1 µg/mL (≈ 2.14 µM); MIC [11]: 1 µg/mL (≈ 2.14 µM); MIC [12, 36]: 0.5 µg/mL (≈ 1.07 µM); MIC [13, 37]: 0.5 µg/mL (≈ 1.07 µM); MIC ([14]; NB12, 144 h): 1 µg/mL (≈ 2.14 µM); MIC [15]: 1 µg/mL (≈ 2.14 µM); MIC ([28]; 18 h): > 100 µg/mL; MIC ([17]; R80/421, 18 h): 1 µg/mL (≈ 2.14 µM); MIC ([18]; W2827, 18 h): 5 µg/mL (≈ 10.7 µM); MIC ([22]; Bacillus subtilis, 6633, 18 h): 1 µg/mL (≈ 2.14 µM); MIC ([24]; 18 h): > 100 µg/mL; MIC [25, 45]: 2.5 µg/mL (≈ 5.35 µM); MIC ([26]; Pseudomonas aeruginosa, 10662, 18 h): > 100 µg/mL
C/C(=C\C(=O)OC1CCC(=NO)CC1)C[C@@H]1OC[C@H](C[C@@H]2O[C@H]2[C@@H](C)[C@H](C)O)[C@@H](O)[C@H]1O (stereo partly drawn) [Example 3, 4-Hydroxyiminocyclohexyl monate A]	0.5 (≈ 1.1 µM)		0.25 (≈ 0.549 µM)	0.5 (≈ 1.1 µM)		0.25 (≈ 0.549 µM)		≤ 0.01	0.5 (≈ 1.1 µM)	5 (≈ 11 µM)	0.5 (≈ 1.1 µM)	5 (≈ 11 µM)		0.5 (≈ 1.1 µM)	2.5 (≈ 5.49 µM)	> 100	> 100	0.1 (≈ 0.22 µM)	0.1 (≈ 0.22 µM)	1 (≈ 2.2 µM)	MIC [2]: 0.25 µg/mL (≈ 0.549 µM); MIC ([5]; STR.11, 144 h): 0.25 µg/mL (≈ 0.549 µM); MIC ([8]; S6, 144 h): 5 µg/mL (≈ 11 µM); MIC [9, 34]: 0.5 µg/mL (≈ 1.1 µM); MIC [11, 35]: 0.5 µg/mL (≈ 1.1 µM); MIC ([12]; MS16, 144 h): 0.25 µg/mL (≈ 0.549 µM); MIC [13]: 0.25 µg/mL (≈ 0.549 µM); MIC [14, 38]: 0.5 µg/mL (≈ 1.1 µM); MIC [28, 47]: > 100 µg/mL; MIC ([19]; 18 h): 1 µg/mL (≈ 2.2 µM); MIC ([22]; Bacillus subtilis, 6633, 18 h): 1 µg/mL (≈ 2.2 µM); MIC [25, 48]: 1 µg/mL (≈ 2.2 µM)
